Here are results for one compound from patent US8846711B2, “Heterocyclic acrylamides and their use as pharmaceuticals” (Fab Pharma S.A.S., priority 2009, dated 2014).

The subject of one series is MRSA (IHMA #510059). As to the kind of experiment: MIC determination using susceptibility method (broth microdilution). The class given is cell-based. The settings on record: Staphylococcus aureus, read-out: MIC (μg/ml) MRSA (IHMA #510059). Here is the method:
(§1) Minimum inhibitory concentrations (MICs) were determined by broth microdilution according to CLSI guidelines (CLSI, M100-20^1, M7-A8^2, M27-A3^3). The compounds were tested in the range from […]. Colonies were taken directly from a second-pass culture plate and prepared to a suspension equivalent to the 0.5 McFarland standard using normal saline. […] The panels were incubated at 35° C. for 16 to 20 hours before reading the MIC endpoints. The compounds of Examples 12, 29, 59, 63 and 66-71 were dissolved in DMSO to make the initial solutions of 5120 μg/ml. These solutions were diluted 1:10 in sterile water to a stock solution of 512 μg/ml. The stock solutions were further diluted into the appropriate broth medium for the sequential dilutions used in the broth microdilution panels. S. pneumoniae was tested in Mueller Hinton (MH) broth with 3% lysed horse blood and C. albicans was tested in RPMI-1640 medium. All other organisms were tested in MH broth.
(In general: Broth dilution looks for growth in wells or tubes with falling amounts of substance.)

Another series deals with MSSA (IHMA #555189). The series is described as above. The settings on record: Staphylococcus aureus, read-out: MIC (μg/ml) MSSA (IHMA #555189). The class given is cell-based. Here is the method:
as §1

In another series the test system is C. albicans (ATCC 90028). The series is described as above. The class given is cell-based. The settings on record: Candida albicans, ATCC90028, read-out: MIC (μg/ml) C. albicans (ATCC 90028). Here is the method: as §1
Another series concerns E. faecalis (ATCC 29212). The description is as above. The settings on record: Enterococcus faecalis, ATCC29212, read-out: MIC (μg/ml) E. faecalis (ATCC 29212). In kind it is cell-based. Here is the method: as §1
Another series concerns E. coli (ATCC 25922). The description is as above. The class given is cell-based. Conditions: Escherichia coli, ATCC25922, read-out: MIC (μg/ml) E. coli (ATCC 25922). Here is the method: as §1
In a further series the test system is S. aureus ATCC 29213. Described as above. In kind it is cell-based. The settings on record: Staphylococcus aureus, ATCC29213, read-out: MIC (μg/ml) S. aureus ATCC 29213. Here is the method: as §1
Series [1] deals with S. pneumoniae (ATCC 49619). The description is as above. Conditions: Streptococcus pneumoniae, ATCC49619, read-out: MIC (μg/ml) S. pneumoniae (ATCC 49619). In kind it is cell-based. Here is the method:
as §1

Series [2] has as its target recombinant S. aureus FabI enzyme (Staphylococcus aureus (strain MRSA252), UniProt Q6GI75). As to the kind of experiment: FabI inhibition, fluorescence based assay. The class given is biochemical. Conditions: in vitro. Here is the method:
Compound inhibitory activity of FabI enzyme is measured in vitro by the […] determination using a fluorescence based assay.
The protein FabI from S. aureus is prepared and purified using standard methods for recombinant protein expression after cloning of the gene in a prokaryotic expression vector.
The biochemical activity of the FabI enzyme is assessed using the following method.
The assay buffer “AB” contained 50 mM ADA (N-(2-acetamido)iminodiacetic acid monosodium salt) pH 6.5, 1 mM dithiothreitol, 0.006% Triton-X100 and 50 mM NaCl.
The following components are added in a white polystyrene Costar plate (Ref 3912) up to a final volume of 55.5 μL: 1.5 μL DMSO or inhibitor dissolved in DMSO and 54 μL of a FabI/NADPH/NADP+ mixture in AB. After 60 min of pre-incubation at room temperature, the reaction is started by addition of 5 μL of trans-2-octenoyl N-acetylcysteamine thioester (t-o-NAC) to a final volume of 60.5 μL. This reaction mixture is then composed of 2 nM FabI, 40 μM NADPH (Sigma, N7505), 10 μM NADP+ (Sigma, N5755), 100 μM t-O-NAC and compound at defined concentration. Fluorescence intensity of NADPH (λex=360 nm, […]) is measured immediately after t-O-NAC addition (T0), and approximately 50 min later (T50) by a Fluostar Optima (BMG) so as to achieve ±30% of NADPH conversion. Enzyme activity is calculated by first subtracting TO signal to T50 and then subtracting background signal (FabI=0). Percentages of inhibition are calculated against untreated samples (Inhibitor=0) and IC50 are fitted to a classical Langmuir equilibrium model using XLFIT (IDBS).

Series [3] deals with Staphylococcus aureus strain ATCC 29213. As to the kind of experiment: In vivo antibacterial activity, thigh infection model in neutropenic Swiss mice. Conditions: 100 mg/kg orally, 1.5 h after infection, FIG. 1.
Another series has as its target human albumin (HSA) (Homo sapiens (Human), UniProt P02768). As to the kind of experiment: HSA binding analysis using a chiral HSA column. In kind it is in vitro ADME. An excerpt:
The test system used in this analysis was an HSA chiral column.
The relationship between the retention time (Tr) and percentage of albumin binding (AB %) depended on the dead time (TO) and the capacity factor (k′): AB%=[k′/(k′+1)]*100
HSA binding was classified as follows:
75%≦AB<90%: Moderate binding

pIC50: −log10 of the molar value. In brackets after ≈: the same amount, converted by molar mass. A value given as a limit tells only on which side of the number the result lay.

Sequence of human albumin (HSA) (P02768 25-609): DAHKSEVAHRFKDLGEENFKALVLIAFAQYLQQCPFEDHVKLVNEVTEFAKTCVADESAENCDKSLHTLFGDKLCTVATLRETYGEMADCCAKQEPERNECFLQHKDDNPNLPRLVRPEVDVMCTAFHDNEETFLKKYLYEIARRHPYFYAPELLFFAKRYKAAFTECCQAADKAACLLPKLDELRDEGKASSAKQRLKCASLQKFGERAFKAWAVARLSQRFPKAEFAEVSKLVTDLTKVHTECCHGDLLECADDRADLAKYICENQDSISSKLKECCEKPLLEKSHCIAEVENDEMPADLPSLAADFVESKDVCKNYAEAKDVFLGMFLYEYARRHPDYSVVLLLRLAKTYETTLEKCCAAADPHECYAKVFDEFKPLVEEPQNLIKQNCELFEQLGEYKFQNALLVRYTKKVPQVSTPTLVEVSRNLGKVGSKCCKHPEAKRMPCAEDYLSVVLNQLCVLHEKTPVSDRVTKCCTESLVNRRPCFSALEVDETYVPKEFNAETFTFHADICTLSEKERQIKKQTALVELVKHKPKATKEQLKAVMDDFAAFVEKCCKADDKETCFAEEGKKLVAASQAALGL

As to `O=C1CCc2cc(/C=C/C(=O)N3CC(OCc4cccs4)C3)cnc2N1` [Example 12, 6-{(1E)-3-Oxo-3-[3-(2-thienylmethoxy)azetidin-1-yl]prop-1-en-1-yl}-3,4-dihydro-1,8-naphthyridin-2(1H)-one], the MIC in the series on MRSA (IHMA #510059) is 1 µg/mL (≈ 2.71 µM); in the series on MSSA (IHMA #555189) it was 1 µg/mL (≈ 2.71 µM); in the series on C. albicans (ATCC 90028), above 128 µg/mL; in the series with E. faecalis (ATCC 29212), above 128 µg/mL; in the series on E. coli (ATCC 25922), above 128 µg/mL; in the series on S. aureus ATCC 29213, 1 µg/mL (≈ 2.71 µM). In addition, the MIC in series [1] was above 128 µg/mL. Besides, the negative logarithm of the IC50 (pIC50) (in general, the negative decadic logarithm of the IC50, by convention in mol/L) in series [2] was 7.89. The “in vivo antibacterial activity (bacterial burden in the thigh of infected mice)” value in [3] is on record as “able to protect mice against thigh dissemination”. The “HSA Binding (%)” value on human albumin (HSA) (AB%=[k′/(k′+1)]*100, chiral HSA column, pH 7.0) is recorded as 45.2%. Besides, the “k′” value at human albumin (HSA) (capacity factor, k′=(Tr−T0)/T0) was 0.826. The “Conclusion (HSA binding class)” value on human albumin (HSA) (chiral HSA column) is “Low binding (AB<75%: Low binding)”. Besides, the “Tr” value on human albumin (HSA) (retention time on chiral HSA column, pH 7.0, 37° C.) came out at 1.410 min. For the same compound, the “affinity in vitro to human albumin” value at human albumin (HSA) (text summary of Table 7) is on record as “low affinity”.
